Data on ten molecules can be found in patent US20080045559A1, “TOCOPHEROL-MODIFIED THERAPEUTIC DRUG COMPOUNDS” (SONUS PHARMACEUTICALS, INC., priority 2003, published 2008).

In data set [1] the test system is HCT-116 (COLON). The data set is described as follows: In vitro cytotoxicity GI50, Example 48. The data set is classed as cell-based. The settings on record: Alamar Blue or Sulfarhodamine B. The protocol: The study was performed using either Alamar Blue or Sulfarhodamine B assays.
For orientation: Resazurin is reduced to fluorescent resorufin, in cell work by metabolically active cells.

The test system of data set [2] is SKOV-3 (OVARIAN). The data set is described as follows: In vitro cytotoxicity GI50, Example 48. It is filed as cell-based. The settings on record: Homo sapiens, SK-OV-3, Alamar Blue or Sulfarhodamine B.
The nature of data set [3]: Solubility to saturation in various solvents, supernatant analysed by HPLC. The data set is classed as physicochemical. The method, then: Compounds were dissolved in each solvent under constant stirring and temperature to saturation. The resulting solutions were centrifuged and the supernatant was analyzed by high performance liquid chromatography (HPLC).
Data set [4] is described as follows: In vitro stability of the lactone form in the presence of human serum albumin. To be noted: saline buffered solution 10 mM pH 7.4, 4% human serum albumin, 37° C.; emulsions vs camptothecin in DMSO; FIG. 12. It is filed as in vitro ADME. From the text:
High performance liquid chromatography with fluorescence detection was used to analyze the decrease in the concentration of the lactone form over time.

For data set [5], the system named is HCT-116 (COLON). The data set is described as follows: In vitro cytotoxicity GI50, Example 17. The data set is classed as cell-based. The settings on record: Homo sapiens. The method, then:
(§1) The cells were in contact with varying concentrations of the test article for a period of 48 hours. At the end of 48 hours, staining with ALAMAR BLUE was performed to determine the number of viable cells and calculate the degree of cellular growth inhibition as compared to a control group.

For data set [6], the system named is HCT-15 (COLON). The data set is described as follows: In vitro cytotoxicity GI50, Example 17. The data set is classed as cell-based. The settings on record: Homo sapiens. The protocol:
as §1

In data set [7] the test system is HT29 (COLON). In words: In vitro cytotoxicity GI50, Example 17. It is filed as cell-based. The settings on record: Homo sapiens. The method, then:
as §1

Data set [8] relates to MCF-7 (BREAST). The data set is described as follows: In vitro cytotoxicity GI50, Example 17. The settings on record: Homo sapiens, MCF7, emulsion formulations, 48 hours, ALAMAR BLUE. It is filed as cell-based. The method, then: as §1
The test system of data set [9] is NCI-H460 (NSCLC). The data set is described as follows: In vitro cytotoxicity GI50, Example 17. The settings on record: Homo sapiens. It is filed as cell-based. The protocol:
as §1

The test system of data set [10] is OVCAR-3 (OVARIAN). The data set is described as follows: In vitro cytotoxicity GI50, Example 17. To be noted: emulsion formulations, 48 hours, ALAMAR BLUE. It is filed as cell-based. The protocol: as §1
The nature of data set [11]: Pharmacokinetics after intravenous bolus in rats. It is filed as in vivo. To be noted: Sprague-Dawley, rat, intravenous bolus of emulsion, approximately 14 mg/kg, plasma; for half-life: read-out: t1/2 (elimination) (converted). The protocol: Blood samples were collected for up to 120 hours post dose via the jugular vein. […] A noncompartmental analysis was carried out using WinNonlin (v 4.1).

Data set [12] relates to HT-29 human tumor cells. In words: HT-29 human tumor xenograft. It is filed as in vivo, Athymic mice. To be noted: for Number of animals with no measurable tumor on Day 55 / Tumor Growth Delay (T-C) / Tumor Growth Inhibition (% T/C): 15 mg/kg i.v.; for Mice with no measurable tumor: fifty-five days after dose initiation. The protocol: HT-29 Human Tumor Xenograft. Athymic mice were subcutaneously implanted with 30-40 mg tumor fragments using 12-gauge trocar needles. A sufficient number of mice were implanted with fragments so tumors in narrow weight range (100-200 mg) were selected for the trial on staging day (SD). The animals selected with tumors in the proper size range were randomized into six groups of 10 animals and intravenously administered the following test compounds:
In both xenograph studies, animal body weights and tumors were measured twice weekly following the initiation of dosing. The tumor measurements were performed using a caliper (millimeters); the tumor volume was calculated based on the formula: (Length×width^2)/2=Volume(mm^3).

For data set [13], the system named is H460 (NSCLC). The data set is described as follows: In vitro cytotoxicity GI50, Example 48. It is filed as cell-based.
The conditions of data set [14]: rat, in vivo, iv; cited from earlier work.

SMILES strings stand for the structures. Counter-ions that a name gives are not always drawn. Like-named read-outs stand apart in the source and are kept apart here. Marks after values point to notes of the source that are not given here. Where only a bound is given, the exact number is not on record here.

Turning to `CCc1c2c(nc3ccc(OC(=O)CC(C)CC(=O)Oc4c(C)c(C)c5c(c4C)CC[C@@](C)(CCC[C@H](C)CCC[C@H](C)CCCC(C)C)O5)cc13)-c1cc3c(c(=O)n1C2)COC(=O)[C@]3(O)CC` (stereo partly drawn) [d-α-tocopherol-3-methylglutarate-SN38, d-α-Tocopherol-3-methylglutarate-7-ethyl-10-hydroxycamptothecin], the GI50 (in general, the concentration at which growth is held to half of that of the control) in [1] (HCT-116) is 0.187 µM; in data set [1] (Homo sapiens, HCT-116, HCT-116), 0.116 µM.
`CCc1c2c(nc3ccc(OC(=O)CCC(=O)Oc4cc(C)c5c(c4)CC[C@@](C)(CCC[C@H](C)CCC[C@H](C)CCCC(C)C)O5)cc13)-c1cc3c(c(=O)n1C2)COC(=O)[C@]3(O)CC` [δ-tocopherol succinate-SN38, δ-Tocopherolsuccinate-7-ethyl-10-hydroxycamptothecin]: it took 0.00295 µM to inhibit growth in [2] by half (GI50).
Turning to `CC[C@@]1(OC(=O)CCC(=O)Oc2c(C)c(C)c3c(c2C)CC[C@@](C)(CCC[C@H](C)CCC[C@H](C)CCCC(C)C)O3)C(=O)OCc2c1cc1n(c2=O)Cc2cc3ccccc3nc2-1` [VESA-CPT, Butanedioic acid, (2R)-3,4-dihydro-2,5,7,8-tetramethyl-2-[(4R,8R)-4,8,12-trimethyltridecyl]-2H-1-benzopyran-6-yl (4S)-4-ethyl-3,4,12,14-tetrahydro-3,14-dioxo-1H-pyrano[3′,4′:6,7]indolizino[1,2-b]quinolin-4-yl ester], the Solubility in [3] (Acetonitrile, Room Temp.) was 49.6 mg/g; in [3] (Captex 300 EP, Room Temp.), 96.7 mg/g; in [3] (Chloroform, Room Temp.) it was more than 372.5 mg/g; in data set [3] (DMSO, Room Temp.), more than 255.5 mg/g; in data set [3] (Ethanol Denatured, Room Temp.) it was 57.1 mg/g; in [3] (Glycerin USP/EP/BP/JP, Room Temp.), 2.541 mg/g. The Solubility in [3] (Methanol, Room Temp.) is on record as 14.4 mg/g; in data set [3] (Methylene dichloride, Room Temp.), more than 336.5 mg/g; in data set [3] (PEG-400 NF, Room Temp.), 17.5 mg/g; in data set [3] (Propylene Glycol, USP, Room Temp.) it was 0.4633 mg/g; in [3] (Soybean Oil USP, Room Temp.), 45.2 mg/g; in data set [3] (TPGS, 65 °C), more than 133.3 mg/g. The Solubility in data set [3] (Tween 80 NF, 65 → Room Temp.) was 48.3 mg/g; in data set [3] (Vitamin E USP/NF, 65 °C), more than 288.3 mg/g. The “Stability of the lactone form” value in data set [4] is on record as “greater than that of camptothecin”. Besides, the GI50 in [5] (HCT-116, 48 h) was 0.449 µM; in data set [6] (HCT-15, 48 h), 20 µM; in data set [7] (HT-29, 48 h) it was 0.434 µM; in data set [8] it was 0.325 µM; in [9] (NCI-H460, 48 h), 0.043 µM. The “GI50 (result in words)” value in data set [10] is “Poor”. Also, the MRT (in general, the average time that molecules of a dose stay in the body) in [11] (in vivo) was found to be 9.4 h. The clearance (as a rule, the rate of elimination divided by the concentration) in data set [11] (in vivo) is 0.135 mL/min/kg. The half-life in [11] (in vivo) was 29.1 h. The “Number of animals with no measurable tumor on Day 55” value in data set [12] (q1dx5 (2 weeks)) and in data set [12] (q3dx10) was 0/10 each time. Further, the “Tumor Growth Delay (T-C)” value in [12] (q1dx5 (2 weeks)) was 8.5 days; in data set [12] (q3dx10), 0 days. In [12] (q1dx5 (2 weeks), Day 55), the “Tumor Growth Inhibition (% T/C)” value turned out to be 79 % T/C.
For the molecule `CCc1c2c(nc3ccc(OC(=O)CC(C)CC(=O)Oc4cc(C)c5c(c4)CC[C@@](C)(CCC[C@H](C)CCC[C@H](C)CCCC(C)C)O5)cc13)-c1cc3c(c(=O)n1C2)COC(=O)[C@]3(O)CC` (stereo partly drawn) [δ-tocopherol-3-methylglutarate-SN38, δ-Tocopherol-3-methylglutarate-7-ethyl-10-hydroxycamptothecin], in data set [2], the GI50 stood at 0.00148 µM.
Consider `CCc1c2c(nc3ccc(OC(=O)CCC(=O)Oc4c(C)c(C)c5c(c4C)CC[C@@](C)(CCC[C@H](C)CCC[C@H](C)CCCC(C)C)O5)cc13)-c1cc3c(c(=O)n1C2)COC(=O)[C@@]3(CC)OC(C)=O` [20-acetyl-10-VESA-SN38, 20-Acetyl-10-(d-α-tocopherolsuccinate)-7-ethyl-10-hydroxycamptothecin], for which the GI50 in [13] (Homo sapiens, NCI-H460) stood at 1.26 µM; in data set [1] (Homo sapiens, HCT-116), 0.144 µM.
As for `CCc1c2c(nc3ccc(OC(=O)N4CCC(N5CCCCC5)CC4)cc13)-c1cc3c(c(=O)n1C2)COC(=O)[C@]3(O)CC` [Irinotecan, irinotecan hydrochloride], the MRT in data set [14] was 1.43 h.
For `CCc1c2c(nc3ccc(OC(=O)CCCC(=O)Oc4c(C)c(C)c5c(c4C)CC[C@@](C)(CCC[C@H](C)CCC[C@H](C)CCCC(C)C)O5)cc13)C1CC3C(COC(=O)[C@]3(O)CC)C(=O)N1C2` (stereo partly drawn) [d-α-Tocopherolglutarate-SN38, d-α-Tocopherolglutarate-7-ethyl-10-hydroxycamptothecin], in data set [1] (Homo sapiens, HCT-116, HCT-116), halving of growth (GI50) required 0.19 µM.
As for `CCc1c2c(nc3ccc(OC(=O)CCC(=O)Oc4c(C)c(C)c5c(c4C)CCC(C)(CCCC(C)CCCC(C)CCCC(C)C)O5)cc13)-c1cc3c(c(=O)n1C2)COC(=O)C3(CC)OC(=O)CCC(=O)Oc1c(C)c(C)c2c(c1C)CCC(C)(CCCC(C)CCCC(C)CCCC(C)C)O2` (stereo not drawn) [10,20-diVESA-SN38, 10,20-Di(tocopherol succinate) 7-Ethyl-10-hydroxycamptothecin], the GI50 in [13] (H460, Alamar Blue or Sulfarhodamine B, read-out: GI50) amounted to 4.06 µM; in data set [1] (HCT-116), 9.33 µM.
On to `CCc1c2c(nc3ccc(OC(=O)CCC(=O)Oc4c(C)c(C)c5c(c4C)CC[C@@](C)(CCC[C@H](C)CCC[C@H](C)CCCC(C)C)O5)cc13)-c1cc3c(c(=O)n1C2)COC(=O)[C@]3(O)CC` [VESA-SN38, Butanedioic acid, (4S)-4,11-diethyl-3,4,12,14-tetrahydro-4-hydroxy-3,14-dioxo-1H-pyrano[3′,4′:6,7]indolizino[1,2-b]quinolin-9-yl (2R)-3,4-dihydro-2,5,7,8-tetramethyl-2-[(4R,8R)-4,8,12-trimethyltridecyl]-2H-1-benzopyran-6-yl ester], for which the “Stability of the lactone form” value in data set [4] is recorded as “greater than that of camptothecin”. Further, the GI50 in data set [5] (HCT-116, emulsion formulations, 48 hours, ALAMAR BLUE, read-out: GI50) was 0.119 µM; in data set [6] (HCT-15, emulsion formulations, 48 hours, ALAMAR BLUE, read-out: GI50), 0.099 µM; in data set [7] (HT-29, HT29, emulsion formulations, 48 hours, ALAMAR BLUE, read-out: GI50), 0.091 µM; in data set [9] (NCI-H460, emulsion formulations, 48 hours, ALAMAR BLUE, read-out: GI50), 0.004 µM; in data set [10] (Homo sapiens) it was 0.083 µM. This molecule also displayed an MRT in [11] of 5.15 h. The same molecule showed a clearance in data set [11] of 0.112 mL/min/kg. The half-life in data set [11] was 3.49 h. In addition, the “Number of animals with no measurable tumor on Day 55” value is 4/10 in data set [12] (q1dx5 (2 weeks)) and 8/10 in data set [12] (q3dx10). Further, the “Tumor Growth Delay (T-C)” value in data set [12] (q1dx5 (2 weeks)) and in [12] (q3dx10) was >28* days in each case. Moreover, the “Tumor Growth Inhibition (% T/C)” value worked out at 4 % T/C in [12] (q1dx5 (2 weeks), Day 55) and 2 % T/C in [12] (q3dx10, Day 55). Besides, the “Mice with no measurable tumor” value in data set [12] (q1dx5) is on record as 40%; in data set [12] (q3dx10), 80%.
With `CCc1c2c(nc3ccc(OC(C)=O)cc13)-c1cc3c(c(=O)n1C2)COC(=O)[C@@]3(CC)OC(=O)CCC(=O)Oc1c(C)c(C)c2c(c1C)CC[C@@](C)(CCC[C@H](C)CCC[C@H](C)CCCC(C)C)O2` [10-acetyl-20-VESA-SN38, 10-Acetyl-20-(d-α-tocopherolsuccinate)-7-ethyl-10-hydroxycamptothecin], the GI50 in [13] (Homo sapiens, NCI-H460) came out at 3.9 µM.
